Results as given in ChEMBL document CHEMBL4507278 (2021).

Columns and labels:
[1] = tested on: Tyrosine-protein kinase ABL1 (Homo sapiens), P00519 [Q252H]; conditions: Compound concentration 1000.0 nM
[2] = tested on: Epidermal growth factor receptor (Homo sapiens), P00533 [G719C]; conditions: Compound concentration 1000.0 nM
[3] = target: 5-hydroxytryptamine receptor 2B (Homo sapiens) (UniProt P41595); conditions: Compound concentration 10.0 uM
[4] = tested on: Receptor-type tyrosine-protein kinase FLT3 (Homo sapiens), P36888 [K663Q]; conditions: Compound concentration 1000.0 nM
[5] = target: Membrane-associated tyrosine- and threonine-specific cdc2-inhibitory kinase (Homo sapiens) (UniProt Q99640); conditions: Compound concentration 1000.0 nM
[6] = tested on: Tyrosine-protein kinase ABL1 (Homo sapiens), P00519 [T315I]; conditions: Compound concentration 1000.0 nM
[7] = tested on: Tyrosine-protein kinase ABL1 (Homo sapiens), P00519 [H396P]; conditions: Compound concentration 1000.0 nM
[8] = target: Serine/threonine-protein kinase NLK (Homo sapiens) (UniProt Q9UBE8); conditions: Compound concentration 1000.0 nM
[9] = target: MAP kinase-activated protein kinase 2 (Homo sapiens) (UniProt P49137); conditions: Compound concentration 1000.0 nM
[10] = target: Serine/threonine-protein kinase TAO1 (Homo sapiens) (UniProt Q7L7X3); conditions: Compound concentration 1000.0 nM
[11] = target: Dual specificity protein kinase CLK1 (Homo sapiens) (UniProt P49759); conditions: Compound concentration 1000.0 nM
[12] = target: Activin receptor type-2A (Homo sapiens) (UniProt P27037); conditions: Compound concentration 1000.0 nM
[13] = target: Myosin-IIIb (Homo sapiens) (UniProt Q8WXR4); conditions: Compound concentration 1000.0 nM
[14] = target: T1, 5-hydroxytryptamine receptor 3A (Homo sapiens) (UniProt P46098); conditions: Compound concentration 10.0 uM
T1 sequence (whole entry): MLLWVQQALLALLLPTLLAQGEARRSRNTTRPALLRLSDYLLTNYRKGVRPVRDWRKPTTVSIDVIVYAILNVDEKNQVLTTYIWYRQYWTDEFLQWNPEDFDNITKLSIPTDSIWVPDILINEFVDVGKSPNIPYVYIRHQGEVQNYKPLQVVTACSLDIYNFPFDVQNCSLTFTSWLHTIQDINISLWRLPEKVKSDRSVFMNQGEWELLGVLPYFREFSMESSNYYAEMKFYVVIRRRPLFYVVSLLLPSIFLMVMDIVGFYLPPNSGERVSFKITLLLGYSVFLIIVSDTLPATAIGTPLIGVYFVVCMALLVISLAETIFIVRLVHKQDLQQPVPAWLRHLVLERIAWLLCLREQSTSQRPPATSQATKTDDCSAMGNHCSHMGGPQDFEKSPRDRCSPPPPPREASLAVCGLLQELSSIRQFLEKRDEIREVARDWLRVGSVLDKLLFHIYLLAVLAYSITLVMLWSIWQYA

[15] = tested on: Mast/stem cell growth factor receptor Kit (Homo sapiens), P10721 [D816H]; conditions: Compound concentration 1000.0 nM
[16] = target: Phosphatidylinositol 4,5-bisphosphate 3-kinase catalytic subunit alpha isoform (Homo sapiens) (UniProt P42336); conditions: Compound concentration 1000.0 nM
[17] = tested on: Proto-oncogene tyrosine-protein kinase receptor Ret (Homo sapiens), P07949 [V804L]; conditions: Compound concentration 1000.0 nM
[18] = target: Tyrosine-protein kinase ZAP-70 (Homo sapiens) (UniProt P43403); conditions: Compound concentration 1000.0 nM
[19] = target: Phosphatidylinositol 5-phosphate 4-kinase type-2 gamma (Homo sapiens) (UniProt Q8TBX8); conditions: Compound concentration 1000.0 nM
[20] = target: Serine/threonine-protein kinase PAK 4 (Homo sapiens) (UniProt O96013); conditions: Compound concentration 1000.0 nM
[21] = target: LIM domain kinase 2 (Homo sapiens) (UniProt P53671); conditions: Compound concentration 1000.0 nM
[22] = target: Serine/threonine-protein kinase SIK2 (Homo sapiens) (UniProt Q9H0K1); conditions: Compound concentration 1000.0 nM
[23] = target: Focal adhesion kinase 1 (Homo sapiens) (UniProt Q05397); conditions: Compound concentration 1000.0 nM
[24] = tested on: Mast/stem cell growth factor receptor Kit (Homo sapiens), P10721 [L576P]; conditions: Compound concentration 1000.0 nM
[25] = target: Serine/threonine-protein kinase SIK1 (Homo sapiens) (UniProt P57059); conditions: Compound concentration 1000.0 nM
[26] = target: Serine/threonine-protein kinase 17B (Homo sapiens) (UniProt O94768); conditions: Compound concentration 1000.0 nM
[27] = target: High affinity nerve growth factor receptor (Homo sapiens) (UniProt P04629); conditions: Compound concentration 1000.0 nM
[28] = target: Tyrosine-protein kinase ITK/TSK (Homo sapiens) (UniProt Q08881); conditions: Compound concentration 1000.0 nM
[29] = tested on: Mast/stem cell growth factor receptor Kit (Homo sapiens), P10721 [D816V]; conditions: Compound concentration 1000.0 nM
[30] = target: Alpha-2B adrenergic receptor (Homo sapiens) (UniProt P18089); conditions: Compound concentration 10.0 uM
[31] = target: Serine/threonine-protein kinase B-raf (Homo sapiens) (UniProt P15056); conditions: Compound concentration 1000.0 nM
[32] = target: GABA-A receptor; anion channel (Rattus norvegicus) (UniProt O09028+P15431+P18506+P18508+P19969+P20236+P23574+P23576+P28471+P28473+P30191+P62813+P63079+P63138+Q91ZM7+Q9ES14); conditions: Compound concentration 10.0 uM
[33] = target: Activin receptor type-1-like (Homo sapiens) (UniProt P37023); conditions: Compound concentration 1000.0 nM
[34] = target: Cyclin-dependent kinase 4 (Homo sapiens) (UniProt P11802); conditions: Compound concentration 1000.0 nM
[35] = target: Serine/threonine-protein kinase 35 (Homo sapiens) (UniProt Q8TDR2); conditions: Compound concentration 1000.0 nM
[36] = target: Serine/threonine-protein kinase SBK1 (Homo sapiens) (UniProt Q52WX2); conditions: Compound concentration 1000.0 nM
[37] = target: Cyclin-dependent kinase 8 (Homo sapiens) (UniProt P49336); conditions: Compound concentration 1000.0 nM

Sequence of Myosin-IIIb (Homo sapiens) (Q8WXR4 whole entry): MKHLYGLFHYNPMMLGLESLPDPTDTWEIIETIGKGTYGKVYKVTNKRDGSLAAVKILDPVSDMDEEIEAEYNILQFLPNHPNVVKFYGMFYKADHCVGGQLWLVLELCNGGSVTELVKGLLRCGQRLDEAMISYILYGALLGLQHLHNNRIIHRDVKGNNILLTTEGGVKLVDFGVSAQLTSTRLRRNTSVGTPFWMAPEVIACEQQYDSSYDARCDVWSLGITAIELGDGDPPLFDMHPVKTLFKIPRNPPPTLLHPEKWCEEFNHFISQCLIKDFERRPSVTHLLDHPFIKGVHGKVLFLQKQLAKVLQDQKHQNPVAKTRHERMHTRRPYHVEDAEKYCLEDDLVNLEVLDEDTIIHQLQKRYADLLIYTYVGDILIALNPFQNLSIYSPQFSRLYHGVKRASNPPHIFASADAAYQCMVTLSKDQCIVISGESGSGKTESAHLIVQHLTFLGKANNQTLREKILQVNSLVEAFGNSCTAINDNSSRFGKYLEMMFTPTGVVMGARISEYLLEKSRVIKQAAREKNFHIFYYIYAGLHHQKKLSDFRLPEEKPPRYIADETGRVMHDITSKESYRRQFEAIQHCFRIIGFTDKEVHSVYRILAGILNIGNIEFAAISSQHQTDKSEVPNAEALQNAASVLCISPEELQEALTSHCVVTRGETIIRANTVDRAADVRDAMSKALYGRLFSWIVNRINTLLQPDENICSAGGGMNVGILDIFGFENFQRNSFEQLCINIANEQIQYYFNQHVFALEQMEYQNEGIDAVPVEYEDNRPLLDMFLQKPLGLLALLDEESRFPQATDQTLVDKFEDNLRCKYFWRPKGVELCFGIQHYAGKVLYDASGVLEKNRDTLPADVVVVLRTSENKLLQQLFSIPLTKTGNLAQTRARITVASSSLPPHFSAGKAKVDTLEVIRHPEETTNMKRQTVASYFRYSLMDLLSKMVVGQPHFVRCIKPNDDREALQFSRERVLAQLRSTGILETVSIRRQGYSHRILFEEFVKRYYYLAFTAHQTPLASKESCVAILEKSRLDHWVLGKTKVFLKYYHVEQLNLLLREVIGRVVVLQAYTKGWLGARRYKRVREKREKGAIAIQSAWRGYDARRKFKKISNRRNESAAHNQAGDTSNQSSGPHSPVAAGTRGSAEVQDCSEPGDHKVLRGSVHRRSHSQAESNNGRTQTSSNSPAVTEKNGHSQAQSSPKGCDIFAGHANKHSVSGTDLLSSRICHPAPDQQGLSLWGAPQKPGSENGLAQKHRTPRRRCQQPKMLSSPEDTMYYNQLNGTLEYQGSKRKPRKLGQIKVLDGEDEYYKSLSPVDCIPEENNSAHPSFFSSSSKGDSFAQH
Sequence of Mast/stem cell growth factor receptor Kit (Homo sapiens), P10721 [D816V] (P10721 whole entry D816V): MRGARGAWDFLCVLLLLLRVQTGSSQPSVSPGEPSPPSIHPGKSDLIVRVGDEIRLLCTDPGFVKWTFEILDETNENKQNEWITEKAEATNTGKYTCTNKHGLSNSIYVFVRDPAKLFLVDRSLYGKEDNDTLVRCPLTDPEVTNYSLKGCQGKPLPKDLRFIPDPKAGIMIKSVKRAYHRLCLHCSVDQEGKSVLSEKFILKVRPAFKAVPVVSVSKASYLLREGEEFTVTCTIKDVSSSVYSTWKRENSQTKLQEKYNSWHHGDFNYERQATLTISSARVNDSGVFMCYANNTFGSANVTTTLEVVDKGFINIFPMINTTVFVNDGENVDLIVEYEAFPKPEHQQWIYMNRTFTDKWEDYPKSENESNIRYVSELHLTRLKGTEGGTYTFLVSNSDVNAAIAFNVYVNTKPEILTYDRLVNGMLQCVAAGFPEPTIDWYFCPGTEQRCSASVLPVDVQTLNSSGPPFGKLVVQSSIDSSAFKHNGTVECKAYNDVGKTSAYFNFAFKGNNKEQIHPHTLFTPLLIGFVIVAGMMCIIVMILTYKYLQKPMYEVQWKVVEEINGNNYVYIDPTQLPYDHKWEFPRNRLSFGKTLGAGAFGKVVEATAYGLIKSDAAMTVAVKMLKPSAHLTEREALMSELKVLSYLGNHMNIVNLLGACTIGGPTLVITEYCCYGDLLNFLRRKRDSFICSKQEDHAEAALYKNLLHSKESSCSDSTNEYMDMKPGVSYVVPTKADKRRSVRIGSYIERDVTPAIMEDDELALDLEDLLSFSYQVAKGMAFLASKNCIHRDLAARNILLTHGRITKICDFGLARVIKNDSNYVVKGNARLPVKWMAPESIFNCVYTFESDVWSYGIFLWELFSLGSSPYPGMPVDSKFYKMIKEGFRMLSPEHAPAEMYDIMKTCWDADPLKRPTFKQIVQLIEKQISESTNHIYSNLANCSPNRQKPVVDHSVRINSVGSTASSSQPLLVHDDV
Sequence of Serine/threonine-protein kinase SIK2 (Homo sapiens) (Q9H0K1 whole entry, looked up): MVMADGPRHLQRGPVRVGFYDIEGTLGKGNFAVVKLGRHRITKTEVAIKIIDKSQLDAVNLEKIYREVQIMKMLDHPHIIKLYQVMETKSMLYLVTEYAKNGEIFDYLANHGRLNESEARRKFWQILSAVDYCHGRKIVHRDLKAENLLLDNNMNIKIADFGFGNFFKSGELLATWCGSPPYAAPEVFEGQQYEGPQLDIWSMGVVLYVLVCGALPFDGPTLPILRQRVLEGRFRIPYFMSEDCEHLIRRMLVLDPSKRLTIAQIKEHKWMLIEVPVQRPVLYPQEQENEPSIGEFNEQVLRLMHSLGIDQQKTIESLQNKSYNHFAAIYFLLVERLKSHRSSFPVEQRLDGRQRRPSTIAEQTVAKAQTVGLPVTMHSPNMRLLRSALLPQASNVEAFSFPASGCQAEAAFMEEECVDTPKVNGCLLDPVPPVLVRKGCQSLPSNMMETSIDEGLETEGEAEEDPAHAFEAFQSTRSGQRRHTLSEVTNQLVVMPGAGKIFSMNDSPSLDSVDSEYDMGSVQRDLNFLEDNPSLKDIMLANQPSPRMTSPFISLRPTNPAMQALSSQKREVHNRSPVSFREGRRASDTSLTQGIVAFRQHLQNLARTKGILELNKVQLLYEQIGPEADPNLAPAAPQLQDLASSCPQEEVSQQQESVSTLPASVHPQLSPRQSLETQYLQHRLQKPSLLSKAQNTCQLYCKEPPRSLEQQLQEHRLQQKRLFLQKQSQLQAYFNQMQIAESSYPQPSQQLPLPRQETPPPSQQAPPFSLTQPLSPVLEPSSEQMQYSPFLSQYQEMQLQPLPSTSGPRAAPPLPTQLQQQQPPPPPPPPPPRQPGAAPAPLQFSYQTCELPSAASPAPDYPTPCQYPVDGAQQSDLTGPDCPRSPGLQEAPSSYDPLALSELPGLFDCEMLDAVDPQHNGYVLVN
Sequence of Serine/threonine-protein kinase NLK (Homo sapiens) (Q9UBE8 whole entry): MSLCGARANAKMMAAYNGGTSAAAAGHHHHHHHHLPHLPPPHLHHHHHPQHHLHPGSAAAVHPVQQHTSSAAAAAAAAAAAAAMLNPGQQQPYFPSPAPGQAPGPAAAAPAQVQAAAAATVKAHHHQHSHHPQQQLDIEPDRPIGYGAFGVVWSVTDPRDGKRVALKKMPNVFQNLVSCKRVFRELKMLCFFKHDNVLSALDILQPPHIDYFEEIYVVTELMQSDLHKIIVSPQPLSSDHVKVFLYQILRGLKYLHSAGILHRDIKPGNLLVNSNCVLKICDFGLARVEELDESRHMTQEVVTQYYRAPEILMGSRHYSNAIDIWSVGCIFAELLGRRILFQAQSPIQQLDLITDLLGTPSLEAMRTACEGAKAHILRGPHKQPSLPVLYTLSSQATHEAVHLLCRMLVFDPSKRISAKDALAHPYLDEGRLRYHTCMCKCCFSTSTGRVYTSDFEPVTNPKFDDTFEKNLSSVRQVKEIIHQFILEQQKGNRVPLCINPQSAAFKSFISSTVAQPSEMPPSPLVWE
Sequence of High affinity nerve growth factor receptor (Homo sapiens) (P04629 33-796 limits assumed): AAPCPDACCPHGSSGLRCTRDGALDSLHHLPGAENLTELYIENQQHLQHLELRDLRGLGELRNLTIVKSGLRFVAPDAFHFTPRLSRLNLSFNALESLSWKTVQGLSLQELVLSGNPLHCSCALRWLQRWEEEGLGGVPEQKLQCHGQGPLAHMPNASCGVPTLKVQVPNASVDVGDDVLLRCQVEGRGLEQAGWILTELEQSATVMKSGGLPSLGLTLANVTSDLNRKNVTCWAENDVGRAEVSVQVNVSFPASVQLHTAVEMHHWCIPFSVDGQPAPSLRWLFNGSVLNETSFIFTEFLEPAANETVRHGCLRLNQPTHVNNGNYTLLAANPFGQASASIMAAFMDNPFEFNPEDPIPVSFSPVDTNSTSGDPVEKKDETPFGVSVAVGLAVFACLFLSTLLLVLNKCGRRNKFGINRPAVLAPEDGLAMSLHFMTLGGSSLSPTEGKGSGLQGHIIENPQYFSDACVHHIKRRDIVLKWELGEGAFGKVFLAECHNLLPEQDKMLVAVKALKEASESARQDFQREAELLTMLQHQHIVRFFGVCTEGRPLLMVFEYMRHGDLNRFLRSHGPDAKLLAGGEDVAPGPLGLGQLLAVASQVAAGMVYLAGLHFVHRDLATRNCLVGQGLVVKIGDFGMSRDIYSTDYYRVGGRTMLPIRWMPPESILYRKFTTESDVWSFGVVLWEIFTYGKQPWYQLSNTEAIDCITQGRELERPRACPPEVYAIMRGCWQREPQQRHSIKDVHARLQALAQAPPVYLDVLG
Sequence of Alpha-2B adrenergic receptor (Homo sapiens) (P18089 whole entry): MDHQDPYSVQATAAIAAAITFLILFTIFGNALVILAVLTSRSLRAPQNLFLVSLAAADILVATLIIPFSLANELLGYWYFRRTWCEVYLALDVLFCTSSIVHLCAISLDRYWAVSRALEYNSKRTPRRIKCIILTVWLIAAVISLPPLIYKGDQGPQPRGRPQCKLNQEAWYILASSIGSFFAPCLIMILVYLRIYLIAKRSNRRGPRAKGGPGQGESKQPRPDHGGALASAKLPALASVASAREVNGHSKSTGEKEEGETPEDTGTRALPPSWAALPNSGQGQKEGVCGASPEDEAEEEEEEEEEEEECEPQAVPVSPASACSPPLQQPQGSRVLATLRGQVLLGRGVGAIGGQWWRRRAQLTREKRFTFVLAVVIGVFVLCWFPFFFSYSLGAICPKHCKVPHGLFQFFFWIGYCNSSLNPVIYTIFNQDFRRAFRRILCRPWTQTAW

## CS(=O)(=O)NCC[C@H](NC(=O)c1cncc2c1cnn2-c1ccc(F)cc1)c1ccnc(S(C)(=O)=O)c1 [BI 9307]
[1]
  residual activity: 81%
[2]
  residual activity: 99%
[3]
  inhibition: -5.9%
[4]
  residual activity: 100%
[5]
  residual activity: 84%
[6]
  residual activity: 100%
[7]
  residual activity: 97%
[8]
  residual activity: 100%
[9]
  residual activity: 100%
[10]
  residual activity: 82%
[11]
  residual activity: 93%
[12]
  residual activity: 81%
[13]
  residual activity: 100%
[14]
  inhibition: 10.2%
[15]
  residual activity: 100%
[16]
  residual activity: 83%
[17]
  residual activity: 100%
[18]
  residual activity: 80%
[19]
  residual activity: 0%
[20]
  residual activity: 100%
[21]
  residual activity: 100%
[22]
  residual activity: 100%
[23]
  residual activity: 93%
[24]
  residual activity: 100%
[25]
  residual activity: 100%
[26]
  residual activity: 100%
[27]
  residual activity: 97%
[28]
  residual activity: 99%
[29]
  residual activity: 94%
[30]
  inhibition: -2.26%
[31]
  residual activity: 79%
[32]
  inhibition: 10.4%
[33]
  residual activity: 96%
[34]
  residual activity: 100%
[35]
  residual activity: 100%
[36]
  residual activity: 96%
[37]
  residual activity: 100%

## CS(=O)(=O)c1cc(C2(NC(=O)c3cncc4c3cnn4-c3ccc(F)cc3)CC2)ccn1 [BI 639667]
[1]
  residual activity: 80%
[2]
  residual activity: 100%
[3]
  inhibition: 22.1%
[4]
  residual activity: 100%
[5]
  residual activity: 85%
[6]
  residual activity: 73%
[7]
  residual activity: 100%
[8]
  residual activity: 100%
[9]
  residual activity: 100%
[10]
  residual activity: 94%
[11]
  residual activity: 98%
[12]
  residual activity: 98%
[13]
  residual activity: 100%
[14]
  inhibition: 12.9%
[15]
  residual activity: 49%
[16]
  residual activity: 100%
[17]
  residual activity: 100%
[18]
  residual activity: 71%
[19]
  residual activity: 100%
[20]
  residual activity: 100%
[21]
  residual activity: 100%
[22]
  residual activity: 100%
[23]
  residual activity: 100%
[24]
  residual activity: 100%
[25]
  residual activity: 100%
[26]
  residual activity: 83%
[27]
  residual activity: 96%
[28]
  residual activity: 89%
[29]
  residual activity: 100%
[30]
  inhibition: 13.2%
[31]
  residual activity: 87%
[32]
  inhibition: 3.75%
[33]
  residual activity: 100%
[34]
  residual activity: 100%
[35]
  residual activity: 100%
[36]
  residual activity: 95%
[37]
  residual activity: 100%
